The test system of one series is HIV-1. The experiment in a line: Inhibition of HIV-1 infectivity (p24 ELISA) in MT-2 cells, laboratory-adapted HIV-1 strains. Format: cell-based. The conditions noted are these: Human immunodeficiency virus 1, MT2, 96 h, MT-2 cells, p24 ELISA day 4. As for the experimental part: AZT was used as a positive control in the infectivity assays. In brief, 1×10^4 MT-2 cells (lymphocytes) were infected with HIV-1 at 100 TCID50 (50% tissue culture infective dose, 0.01 MOI [multiplicity of infection]) in 200 μL RPMI 1640 medium containing 10% FBS in the presence or absence of small molecules at graded concentrations overnight. The culture supernatants were then removed and fresh media containing freshly prepared test compounds were added. On the fourth day post-infection, 100 μL of culture supernatants were collected from each well, mixed with equal volume of 5% TRITON X-100® and tested for p24 antigen by ELISA®.
For orientation: In an ELISA, binding on a coated surface is turned into a signal by an enzyme label.

A short description of series [1]: XTT cytotoxicity assay in MT-2 cells. It is filed as cell-based. As to conditions: human, cell type not given. The protocol: Briefly, for MT-2 cells, 100 μL of small molecule at graded concentrations was added to an equal volume of cells (5×10^4 cells/ml) in 96-well plates followed by incubation at 37° C. for 4 days, which ran parallel to the neutralization assay in MT-2 (except medium was added instead of virus). In the case of PBMC, 2.5×10^5 cells/mL were used and the cytotoxicity was measured after 7 days. After addition of XTT (PolySciences, Inc.), the soluble intracellular formazan was quantitated calorimetrically at 450 nm 4 hours later with a reference at 620 nm. The CC50 values were calculated.

Where [2] appears, read: read-out: IC50 (concentration that provides 50% inhibition of HIV-1 p24), Table 1, formula I.
The mark [3] stands for this setting: Table 1, formula I, read-out: CC50 (concentration that causes 50% cytotoxicity).
The mark [4] stands for this setting: Table 2, formula II, read-out: CC50.

Consider 43 compounds from patent publication US8299093B2, “Small molecule inhibitors of retroviral assembly and maturation” (New York Blood Center, Inc., priority 2008, dated 2012).

Molecules are shown by their SMILES. Like-named read-outs stand apart in the source and are kept apart here. Where only a bound is given, the exact number is not on record here.

Consider `Cc1ccc(C(=O)N(Cc2ccco2)Cc2cc3ccc(C)cc3[nH]c2=O)cc1` [NYAD-S92], for which the IC50 with HIV-1 (setting [2]) is greater than 10 µM. In addition, the CC50 in series [1] (setting [3]) is greater than 10 µM.
Take `Cc1cc(=O)n2c3ccccc3n(CC(O)CNc3ccc(Cl)cc3)c2c1C#N` (centres unmarked) [NYAD-S63]: the IC50 with HIV-1 (Table 2, formula II) is greater than 10 µM. Besides, the CC50 in series [1] (setting [4]) is greater than 10 µM.
For the compound `Cc1cc(C)c2[nH]c(=O)c(CN(Cc3ccco3)C(=O)c3ccncc3)cc2c1` [NYAD-S107], the IC50 in the series with HIV-1 (setting [2]) was greater than 10 µM. In addition, in series [1] (setting [3]), the CC50 was greater than 10 µM.
In the case of `COc1ccccc1C(=O)N(Cc1ccco1)Cc1cc2ccc(C)cc2[nH]c1=O` [NYAD-S29], the IC50 in the series with HIV-1 (setting [2]) was greater than 10 µM. For the same compound, the CC50 in series [1] (setting [3]) is greater than 10 µM.
In the series with HIV-1 (Table 2, formula II), `Cc1ccc(NCC(O)Cn2c3ccccc3n3c(=O)cc(C)c(C#N)c23)cc1C` (centres unmarked) [NYAD-S55] displayed an IC50 greater than 10 µM. In addition, the CC50 in series [1] (setting [4]) is greater than 10 µM.
Take `CCOc1ccc(C(=O)N(Cc2ccco2)Cc2cc3cc(OC)c(OC)cc3[nH]c2=O)cc1` [NYAD-S84]: the IC50 in the series on HIV-1 (setting [2]) is greater than 10 µM. For the same compound, the CC50 in series [1] (setting [3]) was greater than 10 µM.
For the compound `Cc1cccc(C(=O)N(Cc2ccco2)Cc2cc3ccc(C)cc3[nH]c2=O)c1` [NYAD-S40], in the series on HIV-1 (setting [2]), the IC50 is greater than 10 µM. In series [1] (setting [3]), the CC50 was greater than 10 µM.
Consider `Cc1cc(C)c2[nH]c(=O)c(CN(Cc3ccco3)C(=O)c3ccc(Br)cc3)cc2c1` [NYAD-S82], for which the IC50 with HIV-1 (setting [2]) was greater than 10 µM. Moreover, the CC50 in series [1] (setting [3]) was greater than 10 µM.
As to `Cc1ccc2[nH]c(=O)c(CN(Cc3ccco3)C(=O)c3ccc(Cl)c(N4CCCCC4)c3)cc2c1` [NYAD-S6-8], in the series on HIV-1 (setting [2]), the IC50 is less than 10 µM. The CC50 in series [1] (setting [3]) is greater than 10 µM.
Turning to `CCOc1ccc2[nH]c(=O)c(CN(Cc3ccco3)C(=O)c3ccccc3Cl)cc2c1` [NYAD-S89], in the series with HIV-1 (setting [2]), the IC50 was greater than 10 µM. Besides, the CC50 in series [1] (setting [3]) is greater than 10 µM.
Consider `Cc1ccc2[nH]c(=O)c(CN(Cc3ccco3)C(=O)c3ccc(F)c(F)c3)cc2c1` [NYAD-S6-21], for which the IC50 in the series on HIV-1 (setting [2]) was less than 10 µM. In series [1] (setting [3]), the CC50 is greater than 10 µM.
As for `Cc1cccc2cc(CN(Cc3ccco3)C(=O)c3ccccc3F)c(=O)[nH]c12` [NYAD-S32], the IC50 in the series on HIV-1 (setting [2]) was greater than 10 µM. Moreover, in series [1] (setting [3]), the CC50 was greater than 10 µM.
Take `Cc1cccc2cc(CN(Cc3ccco3)C(=O)N3CCOCC3)c(=O)[nH]c12` [NYAD-S51]: the IC50 in the series with HIV-1 (setting [2]) was greater than 10 µM. For the same compound, the CC50 in series [1] (setting [3]) is greater than 10 µM.
Turning to `CCc1ccc2[nH]c(=O)c(CN(Cc3cccnc3)C(=S)NCC3CCCO3)cc2c1` (centres unmarked) [NYAD-S3], in the series with HIV-1 (setting [2]), the IC50 was greater than 10 µM. In addition, the CC50 in series [1] (setting [3]) is greater than 10 µM.
In the series on HIV-1 (Table 2, formula II), `COc1ccc(CCNCC(O)Cn2c3ccccc3n3c(=O)cc(C)c(C#N)c23)cc1OC` (centres unmarked) [NYAD-S19] gave an IC50 greater than 10 µM. Further, in series [1] (setting [4]), the CC50 was greater than 10 µM.
`Cc1cc(=O)n2c3ccccc3n(CC(O)CNc3ccccc3)c2c1C#N` (centres unmarked) [NYAD-S10] showed an IC50 in the series with HIV-1 (Table 2, formula II) greater than 10 µM. Moreover, the CC50 in series [1] (setting [4]) was greater than 10 µM.
As for `Cc1cccc2cc(CN(Cc3ccco3)C(=O)c3ccc(F)cc3)c(=O)[nH]c12` [NYAD-S33], in the series with HIV-1 (setting [2]), the IC50 is greater than 10 µM. The CC50 in series [1] (setting [3]) is greater than 10 µM.
On to `Cc1ccc2cc(CN(Cc3ccco3)C(=O)c3ccccc3)c(=O)[nH]c2c1` [NYAD-S27], for which the IC50 with HIV-1 (setting [2]) was greater than 10 µM. For the same compound, the CC50 in series [1] (setting [3]) was greater than 10 µM.
With `CCc1ccc2[nH]c(=O)c(CN(Cc3cccs3)C(=O)c3ccco3)cc2c1` [NYAD-S102], in the series with HIV-1 (setting [2]), the IC50 is greater than 10 µM. Besides, the CC50 in series [1] (setting [3]) is greater than 10 µM.
As to `Cc1cccc2cc(CN(Cc3ccco3)C(=O)c3cccnc3)c(=O)[nH]c12` [NYAD-S30], the IC50 in the series on HIV-1 (setting [2]) is greater than 10 µM. For the same compound, in series [1] (setting [3]), the CC50 is greater than 10 µM.
The compound `CCC1CCCCN1CC(O)Cn1c2ccccc2n2c(=O)cc(C)c(C#N)c12` (centres unmarked) [NYAD-S54] gave an IC50 in the series with HIV-1 (Table 2, formula II) greater than 10 µM. For the same compound, the CC50 in series [1] (setting [4]) is greater than 10 µM.
As to `Cc1cccc(C(=O)N(Cc2ccco2)Cc2cc3cc(C)ccc3[nH]c2=O)c1` [NYAD-S50], in the series on HIV-1 (setting [2]), the IC50 was greater than 10 µM. In series [1] (setting [3]), the CC50 is greater than 10 µM.
With `Cc1ccc(C(=O)N(Cc2ccco2)Cc2cc3cccc(C)c3[nH]c2=O)cc1` [NYAD-S122], in the series with HIV-1 (setting [2]), the IC50 was less than 10 µM. The CC50 in series [1] (setting [3]) was less than 10 µM.
Turning to `Cc1cc(C)c2[nH]c(=O)c(CN(Cc3ccco3)C(=O)c3ccc(F)cc3)cc2c1` [NYAD-S103], the IC50 in the series on HIV-1 (setting [2]) is greater than 10 µM. Further, in series [1] (setting [3]), the CC50 is greater than 10 µM.
As for `Cc1cc(=O)n2c3ccccc3n(CC(O)Cn3ccnc3)c2c1C#N` (centres unmarked) [NYAD-S15], the IC50 in the series with HIV-1 (Table 2, formula II) is greater than 10 µM. The CC50 in series [1] (setting [4]) is greater than 10 µM.
Turning to `CCc1ccc(NCC(O)Cn2c3ccccc3n3c(=O)cc(C)c(C#N)c23)cc1` (centres unmarked) [NYAD-S60], the IC50 in the series with HIV-1 (Table 2, formula II) was greater than 10 µM. In series [1] (setting [4]), the CC50 was less than 10 µM.
`Cc1ccccc1N1CCN(CC(O)Cn2c3ccccc3n3c(=O)cc(C)c(C#N)c23)CC1` (centres unmarked) [NYAD-S14] returned an IC50 in the series on HIV-1 (Table 2, formula II) greater than 10 µM. Also, the CC50 in series [1] (setting [4]) was greater than 10 µM.
Regarding `COc1ccc2[nH]c(=O)c(CN(Cc3ccco3)C(=O)c3ccccc3C)cc2c1` [NYAD-S61], in the series with HIV-1 (setting [2]), the IC50 was greater than 10 µM. In addition, the CC50 in series [1] (setting [3]) is greater than 10 µM.
For the compound `Cc1cc(=O)n2c3ccccc3n(CC(O)CN3CCCC3)c2c1C#N` (centres unmarked) [NYAD-S9], the IC50 with HIV-1 (Table 2, formula II) is greater than 10 µM. Besides, in series [1] (setting [4]), the CC50 was greater than 10 µM.
Regarding `CCOc1ccc2[nH]c(=O)c(CN(Cc3ccco3)C(=O)c3cccc(F)c3)cc2c1` [NYAD-S97], the IC50 in the series with HIV-1 (setting [2]) is greater than 10 µM. The CC50 in series [1] (setting [3]) was less than 10 µM.
With `COc1ccc(NCC(O)Cn2c3ccccc3n3c(=O)cc(C)c(C#N)c23)cc1` (centres unmarked) [NYAD-S53], the IC50 in the series on HIV-1 (Table 2, formula II) was greater than 10 µM. Moreover, in series [1] (setting [4]), the CC50 was greater than 10 µM.
As to `Cc1cc(C)c2cc(CN(Cc3ccco3)C(=O)c3ccccc3)c(=O)[nH]c2c1` [NYAD-S111], the IC50 in the series on HIV-1 (setting [2]) is greater than 10 µM. Also, in series [1] (setting [3]), the CC50 is greater than 10 µM.
On to `Cc1ccc2[nH]c(=O)c(CN(Cc3ccco3)C(=O)c3ccc(C(C)(C)C)cc3)cc2c1` [NYAD-S91], for which the IC50 with HIV-1 (setting [2]) is greater than 10 µM. Besides, in series [1] (setting [3]), the CC50 was greater than 10 µM.
As to `Cc1cc(C)c2[nH]c(=O)c(CN(CCO)C(=S)Nc3ccc(F)cc3)cc2c1` [NYAD-S4], the IC50 in the series with HIV-1 (setting [2]) is greater than 10 µM. Further, the CC50 in series [1] (setting [3]) was greater than 10 µM.
Regarding `Cc1cccc2cc(CN(Cc3ccco3)C(=O)c3ccc(C(C)(C)C)cc3)c(=O)[nH]c12` [NYAD-S23], the IC50 in the series with HIV-1 (setting [2]) was greater than 10 µM. In series [1] (setting [3]), the CC50 is greater than 10 µM.
Turning to `Cc1cc2cc(CN(Cc3ccco3)C(=O)C3CCCCC3)c(=O)[nH]c2cc1C` [NYAD-S43], in the series on HIV-1 (setting [2]), the IC50 is greater than 10 µM. Also, the CC50 in series [1] (setting [3]) was greater than 10 µM.
`Cc1ccc2cc(CN(CC3CCCO3)C(=O)c3ccco3)c(=O)[nH]c2c1C` (centres unmarked) [NYAD-S47]: the IC50 in the series with HIV-1 (setting [2]) was greater than 10 µM. The CC50 in series [1] (setting [3]) was greater than 10 µM.
In the case of `Cc1cccc2cc(CN(Cc3ccccc3)C(=O)c3cccc(Cl)c3)c(=O)[nH]c12` [NYAD-S35], in the series on HIV-1 (setting [2]), the IC50 is greater than 10 µM. Besides, in series [1] (setting [3]), the CC50 was greater than 10 µM.
In the case of `Cc1ccc2[nH]c(=O)c(CN(Cc3ccc(F)cc3)C(=O)c3ccco3)cc2c1` [NYAD-S96], the IC50 in the series with HIV-1 (setting [2]) is greater than 10 µM. For the same compound, the CC50 in series [1] (setting [3]) is greater than 10 µM.
Turning to `Cc1cc(=O)n2c3ccccc3n(CC(O)CN3CCC(C)CC3)c2c1C#N` (centres unmarked) [NYAD-S64], the IC50 with HIV-1 (Table 2, formula II) is greater than 10 µM. In addition, in series [1] (setting [4]), the CC50 is greater than 10 µM.
Regarding `Cc1ccc2[nH]c(=O)c(CN(Cc3ccc(Cl)cc3)C(=O)c3ccccc3)cc2c1` [NYAD-S98], the IC50 with HIV-1 (setting [2]) is greater than 10 µM. Further, the CC50 in series [1] (setting [3]) is greater than 10 µM.
As for `CCc1ccc2[nH]c(=O)c(CN(Cc3ccco3)C(=O)c3ccc(C(C)(C)C)cc3)cc2c1` [NYAD-S110], in the series on HIV-1 (setting [2]), the IC50 was greater than 10 µM. Also, in series [1] (setting [3]), the CC50 is greater than 10 µM.
With `Cc1ccc2[nH]c(=O)c(CN(Cc3ccco3)C(=O)c3ccccc3Br)cc2c1` [NYAD-S90], the IC50 in the series on HIV-1 (setting [2]) was greater than 10 µM. Besides, the CC50 in series [1] (setting [3]) was greater than 10 µM.
